Earlier results as cited in US20180168149A1, “INSECTICIDAL COMPOSITIONS” (HOMS, LLC, priority 2015, published 2018).

Test system: male rats

C=C(C)[C@H]1CC=C(C)CC1 [d-limonene]
tumors on chronic exposure: significant incidence of renal tubular tumors
